The source of these data is ChEMBL document CHEMBL3352432, “Synthesis and biological evaluation of 2-anilino-4-substituted-7H-pyrrolopyrimidines as PDK1 inhibitors” (Bioorg Med Chem, 2014).

pIC50: −log10 of the molar value.

As a reminder, the inhibition is the relative decrease from the control value, in per cent. One may read the pIC50 as the IC50 on a negative log10 scale, so that one unit is a factor of ten.

The target in one assay is T1, 3-phosphoinositide-dependent protein kinase 1 (Homo sapiens) (UniProt O15530).
T1 sequence (whole entry): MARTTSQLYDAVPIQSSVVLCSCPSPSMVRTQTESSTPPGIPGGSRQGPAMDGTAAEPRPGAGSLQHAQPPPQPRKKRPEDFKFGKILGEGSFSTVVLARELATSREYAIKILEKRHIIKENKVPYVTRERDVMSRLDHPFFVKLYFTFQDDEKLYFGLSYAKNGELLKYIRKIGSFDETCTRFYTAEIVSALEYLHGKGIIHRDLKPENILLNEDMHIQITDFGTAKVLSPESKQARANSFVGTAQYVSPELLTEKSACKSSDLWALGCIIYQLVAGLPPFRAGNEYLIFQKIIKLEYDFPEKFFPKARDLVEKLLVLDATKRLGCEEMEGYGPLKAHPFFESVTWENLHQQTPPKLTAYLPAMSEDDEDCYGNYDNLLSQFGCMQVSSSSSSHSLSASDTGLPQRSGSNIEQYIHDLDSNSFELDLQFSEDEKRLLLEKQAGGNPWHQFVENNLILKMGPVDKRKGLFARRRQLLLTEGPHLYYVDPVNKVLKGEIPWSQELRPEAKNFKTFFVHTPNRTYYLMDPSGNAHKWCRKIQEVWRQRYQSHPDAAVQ
The assay is described as follows: Inhibition of PDK1 (unknown origin) expressed in HEK293 cells using PDKtide as substrate at 10 uM after 10 mins by liquid scintillation counting in presence of [gamma-32P]ATP.
As for `COc1ccc(-c2nc(Nc3cccc(NC(=O)N4CCCC4)c3)nc3[nH]ccc23)cc1OC`, the inhibition worked out at 65%.
Turning to `COc1ccc(Nc2nc(Nc3cccc(NC(=O)N4CCCC4)c3)nc3[nH]ccc23)cc1`, the inhibition stood at 45%.
Regarding `O=C(Nc1cccc(Nc2nc(-c3ccccc3)c3cc[nH]c3n2)c1)N1CCCC1`, the inhibition came out at 59%.
Still for that read-out and setting: for `COc1nc(Nc2cccc(NC(=O)N3CCCC3)c2)nc2[nH]ccc12` the value was 90%; for `O=C(Nc1cccc(Nc2nc(-c3cccc(OCc4cccnc4)c3)c3cc[nH]c3n2)c1)N1CCCC1`, 46%; for `COc1ccc(-c2nc(Nc3cccc(NC(=O)N4CCCC4)c3)nc3[nH]ccc23)cc1`, 70%.
Turning to `COc1cc(-c2nc(Nc3cccc(NC(=O)N4CCCC4)c3)nc3[nH]ccc23)cc(OC)c1OC`, the inhibition was determined as 36%.
Still for that read-out and setting: with `O=C(Nc1cccc(Nc2nc(-c3ccc4c(c3)OCO4)c3cc[nH]c3n2)c1)N1CCCC1` the figure was 61%; with `COc1ccc(Oc2nc(Nc3cccc(NC(=O)N4CCCC4)c3)nc3[nH]ccc23)cc1`, 65%.
As to `O=C(Nc1cccc(Nc2nc(Nc3ccccc3)c3cc[nH]c3n2)c1)N1CCCC1`, the inhibition was 46%.
Same read-out and setting: for `COc1cccc(-c2nc(Nc3cccc(NC(=O)N4CCCC4)c3)nc3[nH]ccc23)c1` the value was 48%.

The next assay has as its target T2, 3-phosphoinositide-dependent protein kinase 1 (Homo sapiens, UniProt O15530).
T2 sequence (O15530 whole entry): T1 sequence (whole entry)
Nature of the assay: Inhibition of PDK1 (unknown origin) expressed in HEK293 cells using PDKtide as substrate after 10 mins by liquid scintillation counting in presence of [gamma-32P]ATP.
Turning to `COc1nc(Nc2cccc(NC(=O)N3CCCC3)c2)nc2[nH]ccc12`, the pIC50 was 5.92.
Same read-out and setting: for `COc1ccc(-c2nc(Nc3cccc(NC(=O)N4CCCC4)c3)nc3[nH]ccc23)cc1` the value was 5.31.
